{"source": "patent US20170143674A1", "about": "“Use of Glutaryl Histamine for the Treatment of Respiratory Tract Diseases” (LTD \"VALENTA-INTELLEKT\", priority 2011, published 2017)", "tested_on": "Staphylococcus aureus (mouse-adapted strain 10)", "test": "animal or person", "assay_type": "in vivo, mice", "details": "for Mortality rate (%) / Survival rate (%): tenth day", "experimental": "The tested medicament was glutaryl histamine in doses of 15, 30 and 45 mg/kg. Solutions of the tested medicament for oral administration were prepared ex tempore. Ampicillin (in intravenous administration) was used as a therapeutic preparation since this substance was the most experimentally studied antibiotic approved in clinical practice many years ago.\nStaphylococcus aureus (mouse-adapted strain 10) was used as an infectious agent. Mice were infected intravenously.\nFirstly, there was determined a lethal dose (LD100) of staphylococcus when intravenously administered to this line of mice with a certain weight. Fatal cases among mice were registered every day for ten days. The lethal dose was 3×10^8 CFU/mouse. […] For this purpose, mice were housed into cages (10 animals per cage) and infected with a lethal dose of staphylococcus. One hour later, each mouse was intravenously administered ampicillin in doses of 10, 20, 30, 40, and 50 mg/kg. A group of mice infected with a lethal dose of staphylococcus without the treatment was considered as a control group. Fatal cases among mice were registered every day for ten days.\nThe next step of the experiment was to study an effect of combined administration of glutaryl histamine with ampicillin on a model of staphylococcal sepsis in mice.\nIn the experiment, mice were housed in following groups (10 animals per cage):\nGlutaryl histamine was administered orally in the corresponding doses to mice of groups 3, 4, 5, 6, 7, and 8 for 5 days. Five day after, all groups of mice were intravenously administered 0.2 ml of Staphylococcus aureus in the lethal dose. One hour after infection, mice of groups 2, 6, 7 and 8 were […] administered 0.2 ml of ampicillin in a dose of 20 mg/kg. After infection and administration of ampicillin, mice of groups 3-8 were administered glutaryl histamine for additional 5 days. During the experiment, the animals were observed every day, and fatal cases were registered."}
{"smiles": "O=C(O)CCCC(=O)NCCc1c[nH]cn1", "note": "[glutaryl histamine]", "values": [{"measurement": "died/survived animals", "setting": "day 1, glutaryl histamine 15 mg/kg", "result": "0/10"}, {"measurement": "died/survived animals", "setting": "day 1, glutaryl histamine 30 mg/kg", "result": "0/10"}, {"measurement": "died/survived animals", "setting": "day 1, glutaryl histamine 45 mg/kg", "result": "0/10"}, {"measurement": "died/survived animals", "setting": "day 2, glutaryl histamine 15 mg/kg", "result": "0/10"}, {"measurement": "died/survived animals", "setting": "day 2, glutaryl histamine 30 mg/kg", "result": "0/10"}, {"measurement": "died/survived animals", "setting": "day 2, glutaryl histamine 45 mg/kg", "result": "0/10"}, {"measurement": "died/survived animals", "setting": "day 3, glutaryl histamine 15 mg/kg", "result": "0/10"}, {"measurement": "died/survived animals", "setting": "day 3, glutaryl histamine 30 mg/kg", "result": "0/10"}, {"measurement": "died/survived animals", "setting": "day 3, glutaryl histamine 45 mg/kg", "result": "1/9"}, {"measurement": "died/survived animals", "setting": "day 4, glutaryl histamine 15 mg/kg", "result": "1/9"}, {"measurement": "died/survived animals", "setting": "day 4, glutaryl histamine 30 mg/kg", "result": "1/9"}, {"measurement": "died/survived animals", "setting": "day 4, glutaryl histamine 45 mg/kg", "result": "1/9"}, {"measurement": "died/survived animals", "setting": "day 5, glutaryl histamine 15 mg/kg", "result": "2/8"}, {"measurement": "died/survived animals", "setting": "day 5, glutaryl histamine 30 mg/kg", "result": "2/8"}, {"measurement": "died/survived animals", "setting": "day 5, glutaryl histamine 45 mg/kg", "result": "3/7"}, {"measurement": "died/survived animals", "setting": "day 6, glutaryl histamine 15 mg/kg", "result": "4/6"}, {"measurement": "died/survived animals", "setting": "day 6, glutaryl histamine 30 mg/kg", "result": "3/7"}, {"measurement": "died/survived animals", "setting": "day 6, glutaryl histamine 45 mg/kg", "result": "4/6"}, {"measurement": "died/survived animals", "setting": "day 7, glutaryl histamine 15 mg/kg", "result": "5/5"}, {"measurement": "died/survived animals", "setting": "day 7, glutaryl histamine 30 mg/kg", "result": "4/6"}, {"measurement": "died/survived animals", "setting": "day 7, glutaryl histamine 45 mg/kg", "result": "5/5"}, {"measurement": "died/survived animals", "setting": "day 8, glutaryl histamine 15 mg/kg", "result": "6/4"}, {"measurement": "died/survived animals", "setting": "day 8, glutaryl histamine 30 mg/kg", "result": "6/4"}, {"measurement": "died/survived animals", "setting": "day 8, glutaryl histamine 45 mg/kg", "result": "6/4"}, {"measurement": "died/survived animals", "setting": "day 9, glutaryl histamine 15 mg/kg", "result": "6/4"}, {"measurement": "died/survived animals", "setting": "day 9, glutaryl histamine 30 mg/kg", "result": "7/3"}, {"measurement": "died/survived animals", "setting": "day 9, glutaryl histamine 45 mg/kg", "result": "7/3"}, {"measurement": "died/survived animals", "setting": "day 10, glutaryl histamine 15 mg/kg", "result": "7/3"}, {"measurement": "died/survived animals", "setting": "day 10, glutaryl histamine 30 mg/kg", "result": "7/3"}, {"measurement": "died/survived animals", "setting": "day 10, glutaryl histamine 45 mg/kg", "result": "8/2"}, {"measurement": "Mortality rate (%)", "setting": "glutaryl histamine 15 mg/kg", "result": 70, "unit": "%"}, {"measurement": "Survival rate (%)", "setting": "glutaryl histamine 15 mg/kg", "result": 30, "unit": "%"}, {"measurement": "Mortality rate (%)", "setting": "glutaryl histamine 30 mg/kg", "result": 70, "unit": "%"}, {"measurement": "Survival rate (%)", "setting": "glutaryl histamine 30 mg/kg", "result": 30, "unit": "%"}, {"measurement": "Mortality rate (%)", "setting": "glutaryl histamine 45 mg/kg", "result": 80, "unit": "%"}, {"measurement": "Survival rate (%)", "setting": "glutaryl histamine 45 mg/kg", "result": 20, "unit": "%"}]}
